Holding throughout (type): cell-based
The subject of test [1] is NL43-derived HIV-1 carrying the GFP gene. The conditions noted are these: p24 ELISA after 4 days; for Actually measured virus inhibitory value (%): alone, MT4 cells. As to the method:
MT4 cells (a type of T cell line) were cultured in RPMI supplemented with 10% FBS and 10% antibiotics (penicillin and streptomycin). The cells were subcultured every 2 days in a humidified incubator at 37° C. and 5% CO2 for maintenance.
All viruses used for infection are NL43-derived HIV-1 carrying the GFP gene. The viral gene is recombined with the GFP gene, so that an expression rate of GFP may represent a level of viral infection. In order to identify antiviral efficacy, MT4 cells, which are a human-derived T cell line, were used. The MT4 cells were inoculated into 48-well plates at a density of 1×10^5 cells/well and infected with HIV-1 in an amount corresponding to 0.5 ng of HIV-1 p24. Treatment with mixtures to be tested for efficacy was performed simultaneously with the infection. The mixtures were prepared by mixing AVI-CO-004 with AZT, 3TC, Tenofovir, or FTC, respectively. […] Virus supernatant was collected and cell residues were removed. Then, analysis was performed. The viral production was quantified by p24 ELISA assay.
Specifically, 100,000 MT4 cells were respectively inoculated into 48-well plates and infected with HIV-1 in an amount corresponding to 0.5 ng of HIV-1 p24. Treatment with AVI-CO-004 was performed at indicated concentrations. After 4 days, an amount of viruses produced was quantified by p24 ELISA assay.
In the present experiment, antiviral efficacy of a mixture of AVI-CO-004 and AZT was identified. First, 100,000 MT4 cells were respectively inoculated into 48-well plates and infected with HIV-1 in an amount corresponding to 0.5 ng of HIV-1 p24. Treatment with a mixture of AVI-CO-004 and AZT was performed at indicated concentrations. After 4 days, an amount of viruses produced was quantified by p24 ELISA assay.
In the present experiment, antiviral efficacy of a mixture of AVI-CO-004 and 3TC was identified. First, 100,000 MT4 cells were respectively inoculated into 48-well plates and infected with HIV-1 in an amount corresponding to 0.5 ng of HIV-1 p24. Treatment with a mixture of AVI-CO-004 and 3TC was performed at indicated concentrations. After 4 days, an amount of viruses produced was quantified by p24 ELISA assay.
In the present experiment, antiviral efficacy of a mixture of AVI-CO-004 and TFV was identified. First, 100,000 MT4 cells were respectively inoculated into 48-well plates and infected with HIV-1 in an amount corresponding to 0.5 ng of HIV-1 p24. Treatment with a mixture of AVI-CO-004 and TFV was performed at indicated concentrations. After 4 days, an amount of viruses produced was quantified by p24 ELISA assay.
In the present experiment, antiviral efficacy of a mixture of AVI-CO-004 and FTC was identified. First, 100,000 MT4 cells were respectively inoculated into 48-well plates and infected with HIV-1 in an amount corresponding to 0.5 ng of HIV-1 p24. Treatment with a mixture of AVI-CO-004 and FTC was performed at indicated concentrations. After 4 days, an amount of viruses produced was quantified by p24 ELISA assay.

For test [2] the test system is unchanged. The conditions noted are these: alone, MT4 cells, p24 ELISA 3 days after infection. Here is the method:
Specifically, MT4 cells were inoculated at 1×10^5 cells into 48-well plates and infected with HIV-1 in an amount corresponding to 1 ng of p24. All viruses used for the infection are NL43-derived HIV-1 carrying the GFP gene. Together with the infection, the cells were treated with 0.5 μM, 1 μM, 2.5 μM, or 5 μM of AVI-CO-004 alone. Three days after the infection, a level of viral proliferation was identified by GFP expression using a fluorescence microscope (A of FIG. 6). Virus supernatant was collected and cell residues were removed; and HIV-1 P24 antigen ELISA assay was performed to identify a level of viral production (B of FIG. 6).
First, MT4 cells were inoculated at 1×10^5 cells into 48-well plates and infected with HIV-1 in an amount corresponding to 1 ng of p24. Together with the infection, the cells were treated with AVI-CO-004 at 0.5 μM and 1 μM in combination with 1 nM of AZT (zidovudine) and 0.5 nM of 3TC (lamivudine) fixed as basal therapeutic agents. Three days after the infection, a level of viral proliferation was identified by GFP expression using a fluorescence microscope (A of FIG. 7). Virus supernatant was collected and cell residues were removed; and HIV-1 P24 antigen ELISA assay was performed to identify a level of viral production (B of FIG. 7).
First, MT4 cells were inoculated at 1×10^5 cells into 48-well plates and infected with HIV-1 in an amount corresponding to 1 ng of p24. Together with the infection, the cells were treated with AVI-CO-004 at 0.5 μM, 1 μM, 2.5 μM, and 5 μM in combination with 0.25 μM of TFV and 0.2 μM of FTC fixed as basal therapeutic agents. Three days after the infection, a level of viral proliferation was identified by GFP expression using a fluorescence microscope (A of FIG. 8). Virus supernatant was collected and cell residues were removed; and HIV-1 P24 antigen ELISA assay was performed to identify a level of viral production (B of FIG. 8).
On the technique in general: ELISA stands for enzyme-linked immunosorbent assay.

Test [3] shares this test system. The test is described as follows: Reinfectivity of viral particles produced after treatment: healthy MT4 cells reinfected (2.5 ng p24), GFP-positive cells counted by FACS after 48 hours. The conditions noted are these: for Decreased reinfectivity (%): alone, reinfection of MT4 cells, FACS. Here is the method:
In order to identify reinfectivity of viruses produced after treatment with AVI-CO-004 alone, healthy T cells inoculated at 1×10^5 cells into 48-well plates were infected with the same amount (2.5 ng in p24) of purified viral particles produced in infection assay in Example 2. After 48 hours, a level of reinfectivity of the viral particles was identified by GFP expression using a fluorescence microscope. For quantification, GFP-positive cells re-infected with the viruses were counted using a fluorescence activated cell sorter (FACS) and indicated (A of FIG. 9), and the results were graphically represented (B of FIG. 9).
In order to compare reinfectivity of the viruses produced after treatment with AVI-CO-004 alone and after combined treatment with AVI-CO-004/AZT/3TC or AVI-CO-004/TFV/FTC, the purified viral particles produced after the combined treatment in Example 2 and a control which had not been treated with an inhibitor were quantified at the same amount (2.5 ng of p24), and used to reinfect healthy T cells.
First, healthy MT4 cells were inoculated at 1×10^5 cells into 48-well plates and infected with the same amount (2.5 ng in p24) of purified viral particles produced in infection assay in Example 2. After 48 hours, a level of reinfectivity of the viruses was identified by GFP expression using a fluorescence microscope. For quantification, GFP-positive cells re-infected with the viruses were counted using a fluorescence activated cell sorter (FACS) and indicated, and the results were graphically represented (FIGS. 10 and 11).
(In flow cytometry, cells or beads pass a laser one at a time.)

The structures appear in SMILES notation. Where two headings read alike, the source gives them in different places.

These results are taken from US11141407B2, “Pharmaceutical composition for preventing or treating aids comprising rhodanine derivative” (AVIXGEN INC., priority 2018, dated 2021).

For the molecule `Nc1ccn([C@@H]2CS[C@H](CO)O2)c(=O)n1` [3TC, 2′-3′-dideoxy-3′-thiacytidine], the “Actually measured virus inhibitory value (%)” value in test [1] (amount used 1 nM) is given as 25%.

For the molecule `O=C(O)CCN1C(=O)/C(=C/c2ccc(-c3ccc(Cl)cc3)o2)SC1=S` [AVI-CO-004, 3-{5-[5-(4-chloro-phenyl)-furan-2-ylmethylene]-4-oxo-2-thioxo-thiazolidin-3-yl}-propionic acid], the “Actually measured virus inhibitory value (%)” value was 12% in test [1] (amount used 2.5 μM); 40% in test [1] (amount used 5 μM); 14.4% in test [2] (amount used 0.5 μM); 44% in test [2] (amount used 1 μM); 61.2% in test [2] (amount used 2.5 μM); 76.3% in test [2] (amount used 5 μM). In test [1] (treatment alone at increasing concentrations, p<0.05), the “antiviral effect (amount of viruses produced)” value was “concentration-dependent antiviral effect”. For the same molecule, the “reinfectivity of viruses produced after treatment, compared with a control” value in test [3] (treatment alone, reinfection of healthy cells) is reported as “significantly decreased reinfectivity”. The “Decreased reinfectivity (%)” value in test [3] (viruses produced under 0.5 μM) turned out to be 35.8%; in test [3] (viruses produced under 1 μM), 65.3%; in test [3] (viruses produced under 2.5 μM), 97.5%; in test [3] (viruses produced under 5 μM) it was 97.5%.

Regarding `Cc1cn([C@H]2C[C@H](N=[N+]=[N-])[C@@H](CO)O2)c(=O)[nH]c1=O` [AZT, 3′-azido-3′-deoxythymidine], the “Actually measured virus inhibitory value (%)” value in test [1] (amount used 1 nM) is given as 9%.

Regarding `Nc1nc(=O)n([C@@H]2CS[C@H](CO)O2)cc1F` [FTC], the “Actually measured virus inhibitory value (%)” value in test [1] (amount used 5 nM) was determined as 19%.

Regarding `C[C@H](Cn1cnc2c(N)ncnc21)OCP(=O)(O)O` [TFV, tenofovir], the “Actually measured virus inhibitory value (%)” value in test [1] (amount used 0.25 μM) is reported as 30%.
